Reference: patent US20250236608A1, “EGFR INHIBITORS” (Blueprint Medicines Corporation, priority 2022, published 2025)

Columns and labels:
[1] = target: EGFR (d746-750) (Homo sapiens (Human), UniProt P00533, DEL746-750); test: Biochemical EGFR inhibition assay, EGFR (d746-750); settings: Caliper mobility shift; 1.0 mM ATP or ATP Km; read-out: Enz EGFR_Exon19-del746-750 IC50
[2] = target: pEGFR (Tyr1068) in PC-9 cells (Ex19Del) (Homo sapiens (Human), UniProt P00533, DEL746-750); test: PC-9 pEGFR AlphaLISA assay; assay type: cell-based; settings: 4 hours incubation, p-EGFR (Tyr1068) AlphaLISA, read-out: Ext pEGFR_PC-9 Ex19Del IC50
Sequence of pEGFR (Tyr1068) in PC-9 cells (Ex19Del) (P00533 other isoform, or with tags, fused parts or gaps del 746-750): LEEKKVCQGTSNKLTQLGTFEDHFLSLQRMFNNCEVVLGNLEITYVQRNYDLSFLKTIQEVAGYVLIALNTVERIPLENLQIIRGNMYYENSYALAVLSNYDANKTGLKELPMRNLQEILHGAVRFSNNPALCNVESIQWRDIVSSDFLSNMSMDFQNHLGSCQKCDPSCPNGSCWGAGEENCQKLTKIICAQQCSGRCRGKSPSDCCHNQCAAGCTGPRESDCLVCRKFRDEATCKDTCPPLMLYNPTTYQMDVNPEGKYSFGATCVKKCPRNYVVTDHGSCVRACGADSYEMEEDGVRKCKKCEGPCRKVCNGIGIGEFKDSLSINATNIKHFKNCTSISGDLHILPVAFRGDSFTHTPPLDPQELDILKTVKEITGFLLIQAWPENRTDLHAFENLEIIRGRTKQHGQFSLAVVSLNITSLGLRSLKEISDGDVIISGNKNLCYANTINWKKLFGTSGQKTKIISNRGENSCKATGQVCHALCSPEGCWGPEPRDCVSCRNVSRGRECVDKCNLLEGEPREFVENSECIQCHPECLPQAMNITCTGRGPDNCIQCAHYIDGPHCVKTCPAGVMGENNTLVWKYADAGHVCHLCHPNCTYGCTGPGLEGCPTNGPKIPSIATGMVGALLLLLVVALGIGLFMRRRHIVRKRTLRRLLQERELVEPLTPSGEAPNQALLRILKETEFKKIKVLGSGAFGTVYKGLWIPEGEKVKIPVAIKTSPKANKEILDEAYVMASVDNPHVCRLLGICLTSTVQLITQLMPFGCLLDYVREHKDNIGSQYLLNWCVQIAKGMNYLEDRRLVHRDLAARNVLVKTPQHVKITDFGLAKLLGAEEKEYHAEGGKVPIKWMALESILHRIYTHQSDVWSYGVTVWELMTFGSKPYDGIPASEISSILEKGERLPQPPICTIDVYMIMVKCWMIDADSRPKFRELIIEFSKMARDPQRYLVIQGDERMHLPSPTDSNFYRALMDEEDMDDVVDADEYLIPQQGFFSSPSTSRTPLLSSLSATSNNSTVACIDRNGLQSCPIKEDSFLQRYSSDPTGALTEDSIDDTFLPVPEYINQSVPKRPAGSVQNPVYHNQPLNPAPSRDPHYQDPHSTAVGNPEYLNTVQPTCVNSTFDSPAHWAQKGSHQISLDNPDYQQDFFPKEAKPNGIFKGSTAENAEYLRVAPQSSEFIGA
Summary of the method: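 Cells seeded in phenol-free DMEM with 10% FBS adhered overnight at 37° C./5% CO2, then were exposed for 4 hours to a 4-fold, 10-point compound dilution series. After lysis, phospho-EGFR was read by AlphaLISA SureFire Ultra, and IC50 was fitted from percent inhibition versus log concentration.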

[3] = target: EGFR L858R (Homo sapiens (Human), UniProt P00533, L858R); test: Biochemical EGFR inhibition assay, EGFR L858R; settings: Caliper mobility shift; 1.0 mM ATP or ATP Km; read-out: Enz EGFR_L858R IC50
Sequence of EGFR L858R (P00533 25-1210 L858R): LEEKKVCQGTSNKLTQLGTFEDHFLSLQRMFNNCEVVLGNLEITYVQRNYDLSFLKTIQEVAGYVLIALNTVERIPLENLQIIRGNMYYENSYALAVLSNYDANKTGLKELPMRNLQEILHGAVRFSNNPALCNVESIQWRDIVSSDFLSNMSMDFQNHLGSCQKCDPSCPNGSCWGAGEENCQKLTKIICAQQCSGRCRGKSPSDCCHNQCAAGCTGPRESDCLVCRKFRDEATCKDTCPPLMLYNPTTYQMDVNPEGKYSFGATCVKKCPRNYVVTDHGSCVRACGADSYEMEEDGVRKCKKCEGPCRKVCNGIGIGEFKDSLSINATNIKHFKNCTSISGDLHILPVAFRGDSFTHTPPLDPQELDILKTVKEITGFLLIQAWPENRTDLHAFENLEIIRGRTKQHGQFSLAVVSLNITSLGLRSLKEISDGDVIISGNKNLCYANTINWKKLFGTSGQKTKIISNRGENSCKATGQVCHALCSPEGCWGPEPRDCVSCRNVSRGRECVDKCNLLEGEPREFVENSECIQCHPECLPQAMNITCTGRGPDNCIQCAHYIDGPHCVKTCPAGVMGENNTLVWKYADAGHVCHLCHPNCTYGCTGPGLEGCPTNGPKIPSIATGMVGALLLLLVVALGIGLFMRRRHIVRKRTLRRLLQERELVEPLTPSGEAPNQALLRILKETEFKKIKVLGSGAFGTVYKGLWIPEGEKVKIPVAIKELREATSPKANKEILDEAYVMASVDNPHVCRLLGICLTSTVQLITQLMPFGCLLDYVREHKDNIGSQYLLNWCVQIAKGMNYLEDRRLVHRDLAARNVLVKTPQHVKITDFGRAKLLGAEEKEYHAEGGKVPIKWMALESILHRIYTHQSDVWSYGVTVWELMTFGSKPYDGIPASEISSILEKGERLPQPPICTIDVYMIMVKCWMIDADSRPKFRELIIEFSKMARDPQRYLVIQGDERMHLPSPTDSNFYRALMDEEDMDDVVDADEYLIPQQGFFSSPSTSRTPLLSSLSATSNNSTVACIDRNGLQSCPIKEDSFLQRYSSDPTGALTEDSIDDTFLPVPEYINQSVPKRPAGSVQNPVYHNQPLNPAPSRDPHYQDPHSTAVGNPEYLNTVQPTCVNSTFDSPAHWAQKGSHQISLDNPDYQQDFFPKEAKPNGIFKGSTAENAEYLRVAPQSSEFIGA

Sequence of EGFR (d746-750) (P00533 other isoform, or with tags, fused parts or gaps del 1-694/del 746-750 limits assumed): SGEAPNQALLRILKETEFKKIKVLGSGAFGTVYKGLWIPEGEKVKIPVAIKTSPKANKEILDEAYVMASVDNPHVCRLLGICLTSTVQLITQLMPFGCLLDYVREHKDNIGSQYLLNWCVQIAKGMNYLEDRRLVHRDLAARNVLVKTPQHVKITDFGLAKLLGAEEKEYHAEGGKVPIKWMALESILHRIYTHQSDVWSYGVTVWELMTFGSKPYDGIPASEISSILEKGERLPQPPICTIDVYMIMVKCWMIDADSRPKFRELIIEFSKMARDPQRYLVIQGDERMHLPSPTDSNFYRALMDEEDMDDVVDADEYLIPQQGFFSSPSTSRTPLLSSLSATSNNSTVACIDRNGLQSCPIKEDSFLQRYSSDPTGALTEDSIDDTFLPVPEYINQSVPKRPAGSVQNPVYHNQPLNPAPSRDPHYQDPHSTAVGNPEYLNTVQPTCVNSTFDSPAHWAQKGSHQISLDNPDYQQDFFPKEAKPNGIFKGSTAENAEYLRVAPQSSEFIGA

IC50 [1] [nM]	IC50 [2] [nM]	IC50 [3] [nM]	Structure (SMILES)
2	2.6	3.8	COc1cc2ncnc(-c3cn(C)nc3-c3ccccc3)c2cc1NC(=O)c1ccc(F)cn1 [Example 324, 5-fluoro-N-(7-methoxy-4-(1-methyl-3-phenyl-1H-pyrazol-4-yl)quinazolin-6-yl)picolinamide]
1	0.8	1.8	COc1cc2ncnc(-c3cn(C)nc3-c3ccccc3)c2nc1NC(=O)[C@]12CN(C)C[C@H]1C2(F)F (single isomer, unassigned) [Example 416, (1R,5S)-6,6-difluoro-N-(7-methoxy-4-(1-methyl-3-phenyl-1H-pyrazol-4-yl)pyrido[3,2-d]pyrimidin-6-yl)-3-methyl-3-azabicyclo[3.1.0]hexane-1-carboxamide or (1S,5R)-6,6-difluoro-N-(7-methoxy-4-(1-methyl-3-phenyl-1H-pyrazol-4-yl)pyrido[3,2-d]pyrimidin-6-yl)-3-methyl-3-azabicyclo[3.1.0]hexane-1-carboxamide]
1.1	1.7	1.9	CCn1cc(C(=O)Nc2cc3c(-c4cn(C)nc4-c4ccccc4)ncnc3cc2OC)cn1 [Example 219, 1-ethyl-N-(7-methoxy-4-(1-methyl-3-phenyl-1H-pyrazol-4-yl)quinazolin-6-yl)-1H-pyrazole-4-carboxamide]
78	953	70.5	Cc1nn(C)c(-c2ccccc2)c1-c1ncnc2cc(-c3cnn(C)c3)ccc12 [Example 481, 4-(1,3-dimethyl-5-phenyl-1H-pyrazol-4-yl)-7-(1-methyl-1H-pyrazol-4-yl)quinazoline]
1.9	6.7	4.5	COc1cc2ncnc(-c3cn(C)nc3-c3ccccc3)c2cc1-c1cnc2c(ccn2C)c1 [Example 140, 7-methoxy-6-(1-methyl-1H-pyrrolo[2,3-b]pyridin-5-yl)-4-(1-methyl-3-phenyl-1H-pyrazol-4-yl)quinazoline]
0.9	1.4	1.7	CCn1cc(-c2ncnc3cc(OC)c(NC(=O)c4cnn(C(F)(F)F)c4)cc23)c(-c2ccccc2)n1 [Example 307, N-(4-(1-ethyl-3-phenyl-1H-pyrazol-4-yl)-7-methoxyquinazolin-6-yl)-1-(trifluoromethyl)-1H-pyrazole-4-carboxamide]
3.9	13.8	6.9	COc1cc2ncnc(-c3cn(CC(F)F)nc3-c3ccc(F)cc3)c2cc1C1(O)CC1 [Example 489]
0.9	1.2	1.6	COCC1(C(=O)Nc2cc3c(-c4cn(C)nc4-c4ccccc4)ncnc3cc2OC)CCC1 [Example 214, N-(7-methoxy-4-(1-methyl-3-phenyl-1H-pyrazol-4-yl)quinazolin-6-yl)-1-(methoxymethyl)cyclobutane-1-carboxamide]
1.3	1.4	2.1	COc1cc2ncnc(-c3cn(C)nc3-c3ccccc3)c2cc1NC(=O)c1ccnn1C(F)(F)F [Example 204, N-(7-methoxy-4-(1-methyl-3-phenyl-1H-pyrazol-4-yl)quinazolin-6-yl)-1-(trifluoromethyl)-1H-pyrazole-5-carboxamide]
0.8	1.2	1.1	COc1cc2ncnc(-c3cn(C)nc3-c3ccccc3)c2nc1O[C@H](C)c1nccs1 [Example 32, (R)-2-(1-((7-methoxy-4-(1-methyl-3-phenyl-1H-pyrazol-4-yl)pyrido[3,2-d]pyrimidin-6-yl)oxy)ethyl)thiazole]
1.7	3.2	4.5	COc1cc2ncnc(-c3cn(C)nc3-c3ccccc3)c2cc1-c1cccc2[nH]ncc12 [Example 143, 6-(1H-indazol-4-yl)-7-methoxy-4-(1-methyl-3-phenyl-1H-pyrazol-4-yl)quinazoline]
1.3	3.1	2.1	COc1cc2ncnc(-c3cn(C)nc3-c3ccccc3)c2cc1NC(=O)N1CCO[C@@H]2C[C@@H]21 (stereo in doubt) [Example 185, N-[7-methoxy-4-(1-methyl-3-phenyl-1H-pyrazol-4-yl)quinazolin-6-yl]-2-oxa-5-azabicyclo[4.1.0]heptane-5-carboxamide]
662	4.5	829	COc1cc2ncnc(-c3cn(C)nc3-c3ccccc3F)c2cc1OC(=O)N1CCOC[C@@H]1C [Example 74, 4-(3-(2-fluorophenyl)-1-methyl-1H-pyrazol-4-yl)-7-methoxyquinazolin-6-yl (S)-3-methylmorpholine-4-carboxylate]
0.9	1.2	1.6	COc1cc2ncnc(-c3cn(C)nc3-c3ccccc3)c2nc1NC(=O)C1(C(F)(F)F)CC1 [Example 361, N-(7-methoxy-4-(1-methyl-3-phenyl-1H-pyrazol-4-yl)pyrido[3,2-d]pyrimidin-6-yl)-1-(trifluoromethyl)cyclopropane-1-carboxamide]
1	4	2.1	COc1cc2ncnc(-c3cn(C(F)F)nc3-c3ccccc3)c2nc1NC(=O)C12CC(C1)C2 [Example 364, N-(4-(1-(difluoromethyl)-3-phenyl-1H-pyrazol-4-yl)-7-methoxypyrido[3,2-d]pyrimidin-6-yl)bicyclo[1.1.1]pentane-1-carboxamide]
8.2	26	12	COc1cc2ncnc(-c3cn(C)nc3-c3ccccc3)c2cc1NC(=O)[C@@H](C)CN(C)C (single isomer, unassigned) [Example 238, (S)-3-(dimethylamino)-N-(7-methoxy-4-(1-methyl-3-phenyl-1H-pyrazol-4-yl)quinazolin-6-yl)-2-methylpropanamide or (R)-3-(dimethylamino)-N-(7-methoxy-4-(1-methyl-3-phenyl-1H-pyrazol-4-yl)quinazolin-6-yl)-2-methylpropanamide]
6.7	25.6	5.9	COc1cc2ncnc(-c3cn(C)nc3-c3ccccc3)c2nc1O[C@H](C)c1nnc(C)o1 [Example 38, (R)-2-(1-((7-methoxy-4-(1-methyl-3-phenyl-1H-pyrazol-4-yl)pyrido[3,2-d]pyrimidin-6-yl)oxy)ethyl)-5-methyl-1,3,4-oxadiazole]
1	2	1.7	COc1cc2ncnc(-c3cn(C)nc3-c3ccccc3)c2cc1NC(=O)c1cccnc1 [Example 325, N-(7-methoxy-4-(1-methyl-3-phenyl-1H-pyrazol-4-yl)quinazolin-6-yl)nicotinamide]
3.5	6.1	7.3	COc1cc2ncnc(-c3cn(CCN(C)C)nc3-c3ccccc3)c2cc1NC(=O)C12CC(C1)C2 [Example 308, N-(4-(1-(2-(dimethylamino)ethyl)-3-phenyl-1H-pyrazol-4-yl)-7-methoxyquinazolin-6-yl)bicyclo[1.1.1]pentane-1-carboxamide]
0.9	1.6	1.6	COc1cc2c(-c3cn(C)nc3-c3ccccc3)ncnc2cc1N1CC2(CN(C(C)=O)C2)C1 [Example 447, 1-(6-(6-methoxy-4-(1-methyl-3-phenyl-1H-pyrazol-4-yl)quinazolin-7-yl)-2,6-diazaspiro[3.3]heptan-2-yl)ethan-1-one]
1.6	5.5	3.2	COc1cc2ncnc(-c3cn(C)nc3-c3ccccc3)c2cc1O[C@@H]1CN(C)C[C@H]1F [Example 7, 6-(((3R,4R)-4-fluoro-1-methylpyrrolidin-3-yl)oxy)-7-methoxy-4-(1-methyl-3-phenyl-1H-pyrazol-4-yl)quinazoline]
3.4	4.5	4.8	CCOc1cc2ncnc(-c3cn(C)nc3-c3ccccc3)c2cc1OC1CCNCC1 [Example 8, 7-ethoxy-4-(1-methyl-3-phenyl-1H-pyrazol-4-yl)-6-(piperidin-4-yloxy)quinazoline]
1	2.4	1.5	COc1cc2ncnc(-c3cn(C)nc3-c3ccccc3)c2cc1NC(=O)c1c(Cl)cccc1Cl [Example 231, 2,6-dichloro-N-(7-methoxy-4-(1-methyl-3-phenyl-1H-pyrazol-4-yl)quinazolin-6-yl)benzamide]
1.9	3.3	1.6	COc1cc2ncnc(-c3cn(C)nc3-c3ccccc3)c2cc1C1=CCN(C)C1 [Example 131, 7-methoxy-6-(1-methyl-2,5-dihydro-1H-pyrrol-3-yl)-4-(1-methyl-3-phenyl-1H-pyrazol-4-yl)quinazoline]

Structure (SMILES)	IC50 [1] [nM]	IC50 [2] [nM]	IC50 [3] [nM]
COc1cc2ncnc(-c3cn(C4COC4)nc3-c3ccccc3)c2cc1OC(=O)N1CCN(C)C[C@@H]1C [Example 69, 7-methoxy-4-(1-(oxetan-3-yl)-3-phenyl-1H-pyrazol-4-yl)quinazolin-6-yl (S)-2,4-dimethylpiperazine-1-carboxylate]	3.1	5.8	7.1
[2H]C([2H])([2H])N1CCN(C(=O)Oc2cc3c(-c4cn(C)nc4-c4ccccc4)ncnc3cc2OC)[C@@H](C)C1 [Example 93, 7-methoxy-4-(1-methyl-3-phenyl-1H-pyrazol-4-yl)quinazolin-6-yl(S)-2-methyl-4-(methyl-d3) piperazine-1-carboxylate]	2.5	4.3	4.3
